Earlier results on one compound are cited in patent publication US20090092692A1, “The use of onion extracts to prevent and treat acute and chronic cardiac and vascular complications and their sequelae, as well as to resolve hematomas” (priority 2007, published 2009).

This data set concerns platelet. As to conditions: low doses of aspirin, vasoocclusive disease.

Take `CC(=O)Oc1ccccc1C(=O)O` [aspirin, Acetyl salicylic acid]: the “incidence of major haemorrhage” value is reported as “less than 1%” and the “major outcome (death or further MI)” value was “approximately 60%”.
